The results in this text go back to the Kinase Knowledgebase extract (Sharma et al. 2016).

Molecules are shown by their SMILES.

MAPK14, sequence (Q16539 whole entry, looked up): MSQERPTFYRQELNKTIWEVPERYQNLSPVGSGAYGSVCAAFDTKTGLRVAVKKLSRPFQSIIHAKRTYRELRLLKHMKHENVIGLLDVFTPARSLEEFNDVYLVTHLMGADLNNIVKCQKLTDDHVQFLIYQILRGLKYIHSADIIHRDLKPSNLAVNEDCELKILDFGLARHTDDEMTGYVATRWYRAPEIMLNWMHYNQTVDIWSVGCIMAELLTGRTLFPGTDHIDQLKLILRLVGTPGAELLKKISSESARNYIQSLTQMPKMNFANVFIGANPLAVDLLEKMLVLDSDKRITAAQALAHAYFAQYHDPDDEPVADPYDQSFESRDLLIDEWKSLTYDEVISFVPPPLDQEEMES

One assay concerns the target MAPK14 (UniProt Q16539). Put plainly: p-38 Kinase Inhibition Assay.
Details: not given
As a reminder, the IC50 is the concentration that inhibits the measured activity by half. Read a high IC50 as lower potency. With `NC(=NO)c1cccc(C(=O)c2cnn(-c3ccc(F)cc3)c2N)c1`, the IC50 was 1.45 µM.

The target of another assay is MAPK14 (human) (UniProt Q16539). Put plainly: Inhibition of LPS-Induced TNF-a Production in THP1 Cells.
MAPK14 (human), sequence (Q16539 whole entry, looked up): as above
Details: not given
Molecule `Nc1c(C(=O)c2cccc(OCCCN3CCCCC3)c2)cnn1-c1ccc(F)cc1` came in with an IC50 of 0.61 µM.

For the molecule `Nc1c(C(=O)c2ccc(/C=C/CN3CCOCC3)cc2)cnn1-c1ccc(F)cc1`, the IC50 was found to be 6.3 µM.

`Nc1cccc(C(=O)c2cnn(-c3ccc(F)cc3)c2N)c1` gave an IC50 of 0.17 µM. The molecule `Nc1c(C(=O)c2cccc(/C=C/CN3CCOCC3)c2)cnn1-c1ccc(F)cc1` had an IC50 of 1.26 µM. The same measure, in the same setting: under `CN1CCN(C(=O)COc2cccc(C(=O)c3cnn(-c4ccc(F)cc4)c3N)c2)CC1` stands 0.69 µM; under `Nc1c(C(=O)c2ccc(CCCO)cc2)cnn1-c1ccccc1`, 1.77 µM; under `Nc1c(C(=O)c2cccc(CCCN3CCOCC3)c2)cnn1-c1ccc(F)cc1`, 1.04 µM.

`Nc1c(C(=O)c2cccc(CCS(N)(=O)=O)c2)cnn1-c1ccc(F)cc1` registered an IC50 of 0.51 µM.

The molecule `Nc1c(C(=O)c2cccc(N3CCC(Cc4ccccc4)CC3)c2)cnn1-c1ccc(F)cc1` gave an IC50 of 0.14 µM. Still for that read-out and setting: under `N#CCCCOc1cccc(C(=O)c2cnn(-c3ccc(F)cc3)c2N)c1` stands 0.83 µM; under `Nc1c(C(=O)c2cccc(/C=C/S(N)(=O)=O)c2)cnn1-c1ccc(F)cc1`, 1.62 µM. Molecule `Nc1c(C(=O)c2cccc(OCCN3CCOCC3)c2)cnn1-c1ccc(F)cc1` had an IC50 of 0.77 µM.

In turn, `NC(=NO)c1cccc(C(=O)c2cnn(-c3ccc(F)cc3)c2N)c1` displayed a half-maximal inhibitory concentration (IC50) of 0.17 µM.

A further assay concerns MAPK14 (sprague-dawley rat). Put plainly: Inhibition of LPS Induced TNF-alpha Production in Rats. Conditions: dose or concentration not given here.
The term inhibition denotes the share of the control response that was lost under treatment. The low end stands for little suppression, the high end for strong suppression. Molecule `CN1CCN(CC#Cc2cccc(C(=O)c3cnn(-c4ccc(F)cc4)c3N)c2)CC1` displayed an inhibition of 86%. Still for that read-out and setting: under `Nc1c(C(=O)c2cccc(C#CCN3CCOCC3)c2)cnn1-c1ccc(F)cc1` stands 96%; under `CNCC#Cc1cccc(C(=O)c2cnn(-c3ccc(F)cc3)c2N)c1`, 86%; under `NC(=NO)c1cccc(C(=O)c2cnn(-c3ccc(F)cc3)c2N)c1`, 76%.

On to `CNC(=O)COc1cccc(C(=O)c2cnn(-c3ccc(F)cc3)c2N)c1`, for which the inhibition stood at 75%.
